Where “and” joins values, the source holds several entries; their conditions need not be identical. Identical values can stand only once. Toxic doses and inconclusive results are not listed. Rule as the data show it: active = T/C of 150% or more; inactive = T/C below 125%.
Test system: L1210 leukemia ip in BDF1 mice, survival T/C
Assay: NCI In Vivo Anticancer Drug Screen. Data for tumor model L1210 Leukemia (intraperitoneal) in B6D2F1 (BDF1) mice
Conditions: endpoint: mean survival time, higher = longer survival
How it was run: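 Value reflects the ratio of survival in compound-treated mice to survival in vehicle-treated controls, with both groups carrying the same transplanted tumor.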

[1] = dose: 100.0 mg/kg/injection, schedule: Q04DX002 (ip), vehicle: Klucel (hydroxypropylcellulose) (HPC)
[2] = dose: 100.0 mg/kg/injection, schedule: Q04DX003 (ip), vehicle: saline
[3] = dose: 100.0 mg/kg/injection, schedule: Q04DX003 (ip), vehicle: Klucel (hydroxypropylcellulose) (HPC)
[4] = dose: 200.0 mg/kg/injection, schedule: Q04DX003 (ip), vehicle: Klucel (hydroxypropylcellulose) (HPC)
[5] = dose: 400.0 mg/kg/injection, schedule: Q04DX003 (ip), vehicle: Klucel (hydroxypropylcellulose) (HPC)
[6] = dose: 100.0 mg/kg/injection, schedule: Q01DX001 (ip), vehicle: saline
[7] = dose: 200.0 mg/kg/injection, schedule: Q01DX001 (ip), vehicle: saline
[8] = dose: 50.0 mg/kg/injection, schedule: Q01DX009 (ip), vehicle: Klucel (hydroxypropylcellulose) (HPC)
[9] = dose: 400.0 mg/kg/injection, schedule: Q01DX001 (ip), vehicle: saline

Measured: T/C

COC1OC2COC(c3ccccc3)OC2C(NC(C)=O)C1OS(C)(=O)=O (configuration not stated)
inactive: [1] 101 % of control | dose: 200.0 mg/kg/injection, schedule: Q04DX002 (ip), vehicle: Klucel (hydroxypropylcellulose) (HPC) 101 % of control | dose: 400.0 mg/kg/injection, schedule: Q04DX002 (ip), vehicle: Klucel (hydroxypropylcellulose) (HPC) 105 % of control

CN(C)C(=O)c1cc[n+](Cc2ccc(Cl)cc2)cc1
inactive: [2] 98 % of control

c1ccc2ocnc2c1
inactive: [3] 94 % of control | [4] 96 % of control | [5] 113 % of control

COc1cc(C=Nc2ccc(-c3nc(C)sc3C)cc2)ccc1N(CCOS(C)(=O)=O)CCOS(C)(=O)=O
inactive: dose: 50.0 mg/kg/injection, schedule: Q01DX009 (ip), vehicle: saline 111 % of control | [6] 110 % of control | dose: 100.0 mg/kg/injection, schedule: Q01DX009 (ip), vehicle: saline 121 % of control | [7] 105 % of control | dose: 200.0 mg/kg/injection, schedule: Q01DX009 (ip), vehicle: saline 116 % of control

CCN(C(=S)c1ccccc1)c1ccc(C(=O)OC)cc1
inactive: dose: 75.0 mg/kg/injection, schedule: Q04DX003 (ip), vehicle: saline 100 % of control | dose: 100.0 mg/kg/injection, schedule: Q01DX001 (ip), vehicle: Klucel (hydroxypropylcellulose) (HPC) 100 % of control | dose: 150.0 mg/kg/injection, schedule: Q04DX003 (ip), vehicle: saline 102 % of control | dose: 200.0 mg/kg/injection, schedule: Q01DX001 (ip), vehicle: Klucel (hydroxypropylcellulose) (HPC) 104 % of control | dose: 300.0 mg/kg/injection, schedule: Q04DX003 (ip), vehicle: saline 97 % of control | dose: 400.0 mg/kg/injection, schedule: Q01DX001 (ip), vehicle: Klucel (hydroxypropylcellulose) (HPC) 100 % of control

CC(NC(=O)NCCCl)C(O)c1ccccc1 (configuration not stated)
inactive: dose: 20.0 mg/kg/injection, schedule: Q04DX003 (ip), vehicle: Klucel (hydroxypropylcellulose) (HPC) 103 % of control | dose: 40.0 mg/kg/injection, schedule: Q04DX003 (ip), vehicle: Klucel (hydroxypropylcellulose) (HPC) 96 % of control | dose: 80.0 mg/kg/injection, schedule: Q04DX003 (ip), vehicle: Klucel (hydroxypropylcellulose) (HPC) 102 % of control | [3] 100 % of control

CN(C)c1ccc(Cc2ccc(N(C)C)cc2[N+](=O)[O-])c([N+](=O)[O-])c1
inactive: [8] 100 % of control | dose: 100.0 mg/kg/injection, schedule: Q01DX009 (ip), vehicle: Klucel (hydroxypropylcellulose) (HPC) 98 % of control and 92 % of control | [3] 101 % of control and 102 % of control | dose: 200.0 mg/kg/injection, schedule: Q01DX009 (ip), vehicle: Klucel (hydroxypropylcellulose) (HPC) 97 % of control and 101 % of control | [4] 102 % of control and 104 % of control | dose: 400.0 mg/kg/injection, schedule: Q01DX009 (ip), vehicle: Klucel (hydroxypropylcellulose) (HPC) 101 % of control and 92 % of control | [5] 98 % of control and 105 % of control

C(=N\Nc1c2ccccc2nc2ccccc12)/c1ccc2c(c1)OCO2
inactive: [6] 89 % of control | [7] 100 % of control | [9] 89 % of control

CN(C)Cc1c(Cl)cccc1C(O)c1ccccc1 (configuration not stated)
inactive: dose: 50.0 mg/kg/injection, schedule: Q01DX001 (ip), vehicle: saline 96 % of control | [6] 106 % of control | [7] 106 % of control | [9] 95 % of control

COC(=O)C1CC2(CNc3ccccc32)CN1C (configuration not stated)
inactive: [3] 90 % of control | [4] 89 % of control | [5] 89 % of control

Cc1nnc(/N=C/c2ccccc2)n1/N=C/c1ccccc1
inactive: dose: 25.0 mg/kg/injection, schedule: Q04DX002 (ip), vehicle: Klucel (hydroxypropylcellulose) (HPC) 90 % of control | dose: 50.0 mg/kg/injection, schedule: Q04DX002 (ip), vehicle: Klucel (hydroxypropylcellulose) (HPC) 90 % of control | [1] 96 % of control

C[S+](C)Cc1ccccc1
inactive: dose: 50.0 mg/kg/injection, schedule: Q04DX003 (ip), vehicle: saline 96 % of control | dose: 100.0 mg/kg/injection, schedule: Q01DX009 (ip), vehicle: other 93 % of control | [2] 100 % of control

C=CS(=O)(=O)c1ccc2ccccc2c1
inactive: dose: 10.0 mg/kg/injection, schedule: Q04DX002 (ip), vehicle: Klucel (hydroxypropylcellulose) (HPC) 118 % of control | dose: 20.0 mg/kg/injection, schedule: Q04DX002 (ip), vehicle: Klucel (hydroxypropylcellulose) (HPC) 96 % of control | dose: 40.0 mg/kg/injection, schedule: Q04DX002 (ip), vehicle: Klucel (hydroxypropylcellulose) (HPC) 100 % of control

CC1OC(OC2C(O[C@H]3CC[C@@]4(C)C(=CC[C@H]5[C@@H]6C[C@@H]7O[C@]8(CC[C@H](C)CN8)[C@@H](C)[C@@H]7[C@@]6(C)CC[C@@H]54)C3)OC(CO)C(O)C2OC2OC(CO)C(O)C(O)C2O)C(O)C(O)C1O (some centres not stated)
inactive: dose: 5.0 mg/kg/injection, schedule: Q01DX001 (ip), vehicle: other 97 % of control | dose: 10.0 mg/kg/injection, schedule: Q01DX001 (ip), vehicle: other 109 % of control | dose: 20.0 mg/kg/injection, schedule: Q01DX001 (ip), vehicle: other 106 % of control

O=C(CSCC(=O)c1ccccc1)c1ccccc1
inactive: dose: 12.5 mg/kg/injection, schedule: Q01DX009 (ip), vehicle: Klucel (hydroxypropylcellulose) (HPC) 93 % of control | dose: 25.0 mg/kg/injection, schedule: Q01DX009 (ip), vehicle: Klucel (hydroxypropylcellulose) (HPC) 104 % of control | [8] 112 % of control | dose: 80.0 mg/kg/injection, schedule: Q01DX009 (ip), vehicle: Klucel (hydroxypropylcellulose) (HPC) 103 % of control | dose: 115.0 mg/kg/injection, schedule: Q01DX009 (ip), vehicle: Klucel (hydroxypropylcellulose) (HPC) 100 % of control | dose: 170.0 mg/kg/injection, schedule: Q01DX009 (ip), vehicle: Klucel (hydroxypropylcellulose) (HPC) 100 % of control
